Results reported in patent US7723331B2, “Thienopyrimidine compounds and uses thereof” (AstraZeneca AB, priority 2006, dated 2010).
One block for each compound: values may come before it.

Experiments:
[1] = molecular target: T1, human melanin concentrating hormone receptor 1 (hMCHr1) (Homo sapiens, UniProt Q99705); assay: MCHr1 radioligand binding (125I-MCH displacement); conditions: membranes from CHO-K1 cells expressing hMCHr1, 125I-MCH
T1 construct: purchased Euroscreen; host or cells: CHO-K1
Procedure: Assays were performed on membranes prepared from CHO-K1 cells expressing the human melanin concentrating hormone receptor 1 (hMCHr1, […] protein; Euroscreen). Assays were performed in a 96-well plate format in a final reaction volume of […] per well. Each well contained 6 μg of membrane proteins diluted in binding buffer (50 mM Tris, 3 mM MgCl2, 0.05% bovine serum albumin and the radioligand ^125I-MCH (IM344 Amersham) was added to give 10 000 cpm (counts per minute) per well. Each well contained 2 μl of the appropriate concentration of competitive antagonist prepared in DMSO or in HOAc and left to stand at 30° C. for 60 minutes. Non-specific binding was determined as that remaining following incubation with 1 μM MCH (Melanin concentrating hormone, H-1482 Bachem). The reaction was terminated by transfer of the reaction to GF/A filters using a Micro96 Harvester (Skatron Instruments, Norway). Filters were washed with assay buffer. Radioligand retained on the filters was quantified using a 1450 Microbeta TRILUX (Wallac, Finland).
Non-specific binding was subtracted from all values determined. Maximum binding was that determined in the absence of any competitor following subtraction of the value determined for non-specific binding. Binding of compounds at various concentrations was plotted according to the equation y=A+((B−A)/1+((C/x)^D))) and IC50 estimated where: […]

hERG = hERG (Homo sapiens, UniProt Q12809); assay: hERG activity (planar-array-based voltage clamp); format: cell-based; conditions: modified method of Kiss et al.
Procedure: hERG testing was performed using a modified version of the method described by Kiss et al., “High throughput ion-channel pharmacology: planar-array-based voltage clamp.” Assay Drug Dev Technol., 2003, 1, 127-35.

recombinant hMCHr1 = molecular target: T2, recombinant hMCHr1 (Homo sapiens, UniProt Q99705); assay: MCHr1 functional assay ([35S]GTPγS); format: biochemical; conditions: hMCHr1 membranes, ED80 concentration of MCH
T2 construct: purchased Euroscreen
Procedure: Membranes expressing recombinant hMCHr1 (5.45 pmol/mg protein; Euroscreen) were prepared in assay buffer (50 mM HEPES, 100 mM NaCl, 5 mM MgCl2, 1 mM EDTA, 200 μM DTT, 20 μM GDP (Sigma) containing 0.1 μg/ml BSA, pH7.4) before assay. The assays were performed using membranes at 6 μg/well in an assay volume of 200 μL and the appropriate concentrations of compounds prepared in DMSO or in HOAc. The reaction was started by addition of 0.056 nM [^35S]GTPγS (Specific activity >1000 Ci/mmol; Amersham) and an ED80 concentration of MCH (determined for each membrane and each MCH batch). Non-specific binding was determined using 20 μM non-radiolabelled GTPγS. Plates were incubated for 45 min at 30° C. Free and bound GTPγS were separated by filtration binding using GF/B filter mats presoaked in wash buffer (50 mM Tris, 5 mM MgCl2, 50 mM NaCl, pH 7.4) using a Micro96 cell harvester (Skatron Instruments) and the filters then dried at 50° C. before counting using a 1450 Microbeta TRILUX (Wallac).
Data are means±SD for experiments performed in triplicate. IC50 values of antagonists were determined using non-linear regression analysis of concentration response curves using Activity Base.

T2 sequence (Q99705 whole entry): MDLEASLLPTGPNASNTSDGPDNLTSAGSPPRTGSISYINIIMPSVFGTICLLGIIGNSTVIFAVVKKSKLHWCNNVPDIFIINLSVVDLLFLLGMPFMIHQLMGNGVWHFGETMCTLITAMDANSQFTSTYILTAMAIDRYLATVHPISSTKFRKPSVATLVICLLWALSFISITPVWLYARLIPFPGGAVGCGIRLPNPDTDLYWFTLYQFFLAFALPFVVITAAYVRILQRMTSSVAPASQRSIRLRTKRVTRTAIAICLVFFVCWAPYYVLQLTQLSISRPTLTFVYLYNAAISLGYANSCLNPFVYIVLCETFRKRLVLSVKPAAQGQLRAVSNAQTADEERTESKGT
T1 sequence (Q99705 whole entry): as above
Sequence of hERG (Q12809 whole entry): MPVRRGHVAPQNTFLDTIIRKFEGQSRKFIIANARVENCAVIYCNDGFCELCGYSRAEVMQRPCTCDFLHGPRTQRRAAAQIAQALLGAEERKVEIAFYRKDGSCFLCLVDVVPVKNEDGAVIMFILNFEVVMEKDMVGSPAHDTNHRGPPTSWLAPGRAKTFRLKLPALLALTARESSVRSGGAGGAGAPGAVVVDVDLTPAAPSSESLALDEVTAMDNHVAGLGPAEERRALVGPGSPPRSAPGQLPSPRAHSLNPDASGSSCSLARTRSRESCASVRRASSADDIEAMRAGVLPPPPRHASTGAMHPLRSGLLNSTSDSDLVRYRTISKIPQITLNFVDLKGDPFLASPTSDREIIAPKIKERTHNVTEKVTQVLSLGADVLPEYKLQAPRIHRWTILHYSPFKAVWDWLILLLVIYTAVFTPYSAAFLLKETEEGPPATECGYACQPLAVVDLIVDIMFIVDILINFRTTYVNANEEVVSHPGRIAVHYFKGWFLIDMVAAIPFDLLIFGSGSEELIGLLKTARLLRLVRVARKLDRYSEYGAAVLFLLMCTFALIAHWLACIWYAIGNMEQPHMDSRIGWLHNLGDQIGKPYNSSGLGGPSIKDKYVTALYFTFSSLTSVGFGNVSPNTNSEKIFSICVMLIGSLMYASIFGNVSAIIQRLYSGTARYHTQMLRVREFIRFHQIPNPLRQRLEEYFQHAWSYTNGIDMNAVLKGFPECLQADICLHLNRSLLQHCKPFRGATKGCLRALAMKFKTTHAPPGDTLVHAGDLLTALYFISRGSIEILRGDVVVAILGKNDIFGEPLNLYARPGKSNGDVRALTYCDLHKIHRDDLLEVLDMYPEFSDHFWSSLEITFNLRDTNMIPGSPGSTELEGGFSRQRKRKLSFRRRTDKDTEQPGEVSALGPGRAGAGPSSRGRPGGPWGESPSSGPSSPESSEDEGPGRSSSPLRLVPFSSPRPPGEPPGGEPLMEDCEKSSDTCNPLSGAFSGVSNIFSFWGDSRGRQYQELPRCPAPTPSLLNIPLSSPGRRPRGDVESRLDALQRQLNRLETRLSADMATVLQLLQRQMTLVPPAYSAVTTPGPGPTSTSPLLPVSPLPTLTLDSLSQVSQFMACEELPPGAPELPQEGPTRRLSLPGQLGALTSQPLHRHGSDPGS

SMILES: CN1[C@@H]2CC[C@H]1C[C@@H](Oc1cccc(Cn3cnc4cc(-c5ccc(Cl)cc5)sc4c3=O)c1)C2 [Example 1, 6-(4-Chlorophenyl)-3-(3-{[(3-endo)-8-methyl-8-azabicyclo[3.2.1]oct-3-yl]oxy}benzyl)thieno[3,2-d]pyrimidin-4(3H)-one]
- IC50 [1]: 0.026 µM
- IC50 (hERG): 6.5 µM

- IC50 (recombinant hMCHr1): 0.042 µM
SMILES: CN1CCN(Cc2cccc(Cn3cnc4cc(-c5ccc(Cl)cc5)sc4c3=O)c2)CC1 [Example 5, 6-(4-Chlorophenyl)-3-{3-[(4-methylpiperazin-1-yl)methyl]benzyl}thieno[3,2-d]pyrimidin-4(3H)-one]

- melting point: 202 to 203 °C
SMILES: CN1CCC(Oc2cccc(Cn3cnc4cc(-c5ccc(Cl)cc5)sc4c3=O)n2)CC1 [Example 11, 6-(4-Chlorophenyl)-3-({6-[(1-methylpiperidin-4-yl)oxy]pyridin-2-yl}methyl)thieno[3,2-d]pyrimidin-4(3H)-one]
